The values below come from patent publication US5770688A, “Method and composition for the treatment of mammalian HIV infection” (GSF-Forschungszentrum fur Umwelt und Gesundheit GmbH, priority 1989, dated 1998).

The subject of one experiment is reverse transcriptase. Kind of experiment: activity of reverse transcriptase in the supernatant of treated, HIV infected cell culture. Format: cell-based. Here is the method: Referring more particularly to FIGS. 1-4, melittin (Seq. ID NO:1) and its specified analogues were tested for their effect on HIV-infected T-lymphoma cells. In this regard the following cell lines were employed in the testing: KE37-1 (uninfected) and KE37-1/111S (infected with HTLV-111β). These infected cells were incubated for a period of seven days under test conditions at a temperature of 37° C. and in the presence of 5% CO2. A culture medium of RPMI 1640 (GIBCO) was employed and was further supplemented with 10% fetal calf serum which contained approximately 100 units of penicillin, 100μ of streptomycin, and approximately 0.25μ fungizone (Amphotericin B) per milliliter. This equals 1 milliliter of antibiotic-antimycotic solution (GIBCO Catalogue No. 043-05240 per 100 ml. of medium.) After a one week incubation period in the presence of various concentrations of the above-identified substances, which were added fresh daily to the medium, the following tests were carried out with the cultures. A first test was conducted for purposes of determining the relative cell concentration as a function of the number of HIV infected cells present by employing an MTT test. […] The optical density (OD) of the solution was determined at=600 nm. […]

Another experiment concerns HIV-infected LC5 cells. Kind of experiment: MTT toxicity/killing of HIV infected cells (Biomek 1000). The experiment is classed as cell-based, human. On the procedure: The KE37-1 (uninfected) and KE37-1/111β (infected) cell lines discussed below are commercially available from the Dr. Robert Gallows Laboratory of the NIH in the United States of America and grown in a medium of RPMI 1640 (GIBCO) and further supplemented with 10% fetal calf serum which contained approximately 100 units of penicillin, 100 μg streptomycin, and approximately 0.25 μg fungizone (Amphotericin B) per milliliter. The human mesenchymal cell lines LC5 and LC5-HIV, discussed below, are deposited with the Collection De L'Institut Pasteur of Paris, France on Mar. 9, 1989 and given the accession numbers I-842 and I-843, respectively. The LC5 and LC5-HIV cell lines were grown in a medium of RPMI 1640 and supplemented with 10% fetal calf serum.
(§1) A series of experiments and which are illustrated graphically in FIGS. 6 through 34, respectively, were designed to detect two extremes. In particular the tests were designed to detect the inhibition of viral release and/or the release of virus which has a reduced ability to infect other cells. This reduced ability to infect other cells is represented, for example, by glycosylation inhibitors, the direct effect on virus release is represented by acylation inhibitors, RT inhibitors and melittin (Seq. ID NO:1). The most important feature of this experimental design, however, is to detect the toxicity of melittin. The present experiments were carried out on both the astrocytoma cell line LC5-HIV (cloned infected cells) and T-lymphocytoma cell line KE37-1/IIIβ (cloned infected cells with HTLV-IIIβ). In both cases the results were essentially identical.
(§2) In the present series of experiments HIV release was tested by a fully automated laboratory robot system and which is manufactured by Beckman Instruments as the Biomek 1000. This system performed the following steps. First, chronically infected cells (cloned) are plated in microtiter plates and grown for a period of seven days. They are then challenged by melittin (Seq. ID NO:1) during this period either for the final day or throughout the period as shown in the figures. The number of living cells are quantified by MTT, that is by a metabolic (dehydrogenase) test. The MTT test is automatically performed. The toxic effect is detected at the time of the experiment and not in a separate control experiment. Furthermore, the supernatant, and which contains released virus cells from the period of time which elapsed from the last wash, and which may vary from 24 hours to 7 days, is collected from the culture, and an aliquot is saved for virus quantification by employing antigen or viral enzyme reverse transcriptase (RT). Furthermore, an aliquot is added to a culture of uninfected cells in microtiter plates for subsequent measurement of the ability of the virus cells to reinfect these uninfected cells. In this regard, the number of infected cells is automatically quantified by an immunoperoxidase staining technique. The test results, as shown, are expressed in terms of toxicity of the melittin (MTT test); the release of HIV from the primary culture (RT test); and the ability of the released virus to infect previously uninfected cells.

For another experiment, the system named is HIV. In words: HIV release from chronically infected cells (Biomek 1000). As to conditions: FIGS. 6-19. The experiment is classed as cell-based.
From the text: as §1, §2

Entries after “also recorded” stand apart in the source; their conditions may differ.

Turning to “Gly-Ile-Gly-Ala-Val-Leu-Lys-Val-Leu-Thr-Thr-Gly-Leu-Pro-Ala-Leu-Ile-Ser-Trp-Ile-Lys-Arg-Lys-Arg-Gln-Gln-Amide [melittin]”, the “activity of reverse transcriptase (RT%)” value in the experiment with reverse transcriptase (2.5 μg per ml, FIG. 2) is on record as “revert substantially back to zero”. Further, the “activity of reverse transcriptase, in words” value in the experiment on reverse transcriptase (subtoxic concentrations) was “inhibition of reverse transcriptase”. Besides, in the experiment with HIV-infected LC5 cells, the “killing concentration compared with concentration for effect on HIV release” value is recorded as “ten times higher than the effect on HIV release” and the “lysis of HIV-infected LC5 cells” value is listed as “able to lyse HIV-infected LC5 cells”. Further, the “selectivity for infected cells, in words” value in the experiment with HIV-infected LC5 cells (FIGS. 6-19) is on record as “appears to not selectively affect the infected cells”. For the same substance, the “critical concentration at which all infected cells were killed” value with HIV-infected LC5 cells (infected) is listed as 10 μg per ml. In the experiment on HIV, the “inhibition of viral cell (HIV) release from infected cells, in words” value is reported as “inhibition of viral cell release from infected cells; also recorded: inhibited HIV release”.
